This note sets out measurements from paper PMC10487437 (International Journal of Molecular Sciences, 2023).

Entries after “also recorded” stand apart in the source; their conditions may differ. Where two headings read alike, the source gives them in different places. Square brackets hold non-standard residues; d marks the D form. Peptide text beside a SMILES is read from it. * marks the point of attachment. Nle = CCCC[C@H](N)C(=O)O; Cbz = O=C(OCc1ccccc1)* Where only a bound is given, the exact number is not on record here.

For series [1], the target named is T1, 20S brain proteasome, chymotrypsin-like activity (Mus musculus, UniProt O09061+O55234).
T1 construct: from tissue; host or cells: mouse brain
In words: Inhibition of 20S brain proteasome hydrolysis of Suc-LLVY-AMC (chymotrypsin-like activity). It counts as biochemical. Conditions: 20 mM Tris-HCl pH 7.5, 1 mM DTT, 1 mM EDTA; [20S] = 50 nM; [Suc-LLVY-AMC] = 50 µM. From the text:
(§1) Figure 7 The dependence of 20S proteasome activity on marizomib concentration during hydrolysis of peptide fluorogenic substrates. (a) hydrolysis of model oligoglutamine substrates, Dabcyl-KQ5-PPDE-EDANS (Q5) or Dabcyl-KQ10-PPDE-EDANS (Q10). (b) hydrolysis of standard coumarine-modified peptide substrates. The experimental data are approximated by the function y = A1 + (A2 − A1)/(1 + 10^(LOGx0–x)p), where A1 and A2 are the minimum and maximum values of log10(Ci), respectively, LOGx0 is the logarithm of the EC50 (the concentration giving a response half-way between the upper and lower asymptotes), and p is the Hill coefficient.

Series [2] has as its target T2, 20S brain proteasome, trypsin-like activity (Mus musculus, UniProt P70195+Q9R1P1).
T2 construct: from tissue; host or cells: mouse brain
In words: Inhibition of 20S brain proteasome hydrolysis of Ac-RLR-AMC (trypsin-like activity). It is filed as biochemical. The following applies: [20S] = 50 nM; for IC50: 20 mM Tris-HCl pH 7.5, 1 mM DTT, 1 mM EDTA, [Ac-RLR-AMC] = 50 µM.
Text: as §1

Series [3] has as its target T3, 20S brain proteasome, caspase-like activity (Mus musculus, UniProt P70195+Q60692).
T3 construct: from tissue; host or cells: mouse brain
In words: Inhibition of 20S brain proteasome hydrolysis of Z-LLE-AMC (caspase-like activity). The following applies: [20S] = 50 nM; for IC50: 20 mM Tris-HCl pH 7.5, 1 mM DTT, 1 mM EDTA, [Z-LLE-AMC] = 50 µM. It is filed as biochemical.
Text: as §1

The next series has as its system T4, 20S brain proteasome.
T4 construct: from tissue; host or cells: mouse brain
As to the kind of experiment: Inhibition of 20S brain proteasome hydrolysis of oligoglutamine-containing FRET substrates. It is filed as biochemical, mouse. Conditions: [20S] = 50 nM; for IC50: 20 mM Tris-HCl pH 7.5, 1 mM DTT, 1 mM EDTA.
Text: as §1

In series [4] the test system is T5, 20S proteasome from murine brain.
T5 construct: from tissue; host or cells: mouse brain
As to the kind of experiment: Specific peptidase activity of 20S proteasome with additives (Table S1). Conditions: 20S plus additive: 0.5 µM Bortezomib, 0.1 µM MG132, 0.02% SDS or 11S (1:2, mole:mole); 20S alone 2.37 ± 0.13; means ± SEM of three independent experiments run in duplicate. It counts as biochemical, mouse. From the text:
Characterization of puriﬁed proteasomes
teasomes. […] To conﬁrm that
cathepsin B [48] (Table S1).
reaction mixture for both 20S and 26S.
Table S1. Peptidase activity of the samples of 20S and 26S proteasome from murine brain.
The molar ratio between the proteasome

Another series deals with 26S proteasome. In words: 26S proteasome isolated from mouse brains, in Tris-HCl buffer pH = 7.5 with 5 mM ATP-MgCl2. Conditions: 37 °C, up to 72 h.
The test system of a further series is 20S+11S. In words: 20S proteasome with 11S regulator, both isolated from mouse brains, in Tris-HCl buffer pH = 7.5. Conditions: 37 °C, up to 72 h.
A further series relates to 20S proteasome. As to the kind of experiment: 20S proteasome isolated from mouse brains, in 50 mM Tris-HCl, 1 mM EDTA, 1 mM DTT, 10% glycerol, pH = 7.5. Conditions: 37 °C, up to 72 h.
Another series relates to 26S+11S. As to the kind of experiment: 26S proteasome with 11S regulator, both isolated from mouse brains, in Tris-HCl buffer pH = 7.5 with 5 mM ATP-MgCl2. The following applies: 37 °C, up to 72 h.
[5] abbreviates: fit of dose-response curve (Figure 7), substrate 50 µM.
Where [6] appears, read: fit of dose-response curve (Figure 7).

Usually IC50 stands for the midpoint of a concentration-inhibition curve. Regarding `C[C@@]12OC(=O)[C@]1([C@@H](O)[C@@H]1C=CCCC1)NC(=O)[C@@H]2CCCl` [Marizomib], the IC50 in [1] is 0.0093 ± 0.0015 µM; in series [2], 0.111 ± 0.008 µM; in series [3] it was 0.61 ± 0.04 µM; at 20S brain proteasome (substrate Dabcyl-KQ5 PPD-EDANS, read-out: IC50 of Dabcyl-KQ5 PPD-EDANS hydrolysis by 20S brain proteasome), 0.323 ± 0.015 µM; at 20S brain proteasome (substrate Dabcyl-KQ10 PPD-EDANS, read-out: IC50 of Dabcyl-KQ10 PPD-EDANS hydrolysis by 20S brain proteasome), 0.48 ± 0.02 µM. The “Hill coefficient, inhibition of Ac-RLR-AMC hydrolysis” value in series [2] (setting [5]) is recorded as “(−1.51)”. For the same molecule, in [3] (setting [5]), the “Hill coefficient, inhibition of Z-LLE-AMC hydrolysis” value is reported as “(−1.1)”. In addition, in the series with 20S brain proteasome (setting [6]), the “Hill coefficient, inhibition of Dabcyl-KQ5 PPD-EDANS hydrolysis” value was “(−0.69)”. Moreover, the “Hill coefficient, inhibition of Dabcyl-KQ10 PPD-EDANS hydrolysis” value in the series with 20S brain proteasome (setting [6]) is recorded as “(−0.39)”.
`CC(C)C[C@@H](C=O)NC(=O)[C@H](CC(C)C)NC(=O)[C@H](CC(C)C)NC(=O)OCc1ccccc1` [Z-LLL-CHO (MG132)] (Cbz-Leu-Leu-Leu-aldehyde): the IC50 in series [1] is 0.012 ± 0.003 µM; in [2], 2.8 ± 0.3 µM; in series [3] it was 0.155 ± 0.005 µM; at 20S brain proteasome (substrate Dabcyl-KQ5 PPD-EDANS, n.d. = not detected, read-out: IC50 of Dabcyl-KQ5 PPD-EDANS hydrolysis by 20S brain proteasome), 50 ± 6 µM; at 20S brain proteasome (substrate Dabcyl-KQ10 PPD-EDANS, n.d. = not detected, read-out: IC50 of Dabcyl-KQ10 PPD-EDANS hydrolysis by 20S brain proteasome), 72 ± 8 µM. Also, in series [4], the “Specific peptidase activity using Suc-LLVY-AMC” value amounted to 0.093 ± 0.003 nM/min/µg.
Turning to `CCCC[C@H](NC(=O)[C@@H]1CCCN1C(=O)OCc1ccccc1)C(=O)N[C@H](C=O)CC(=O)O` [Z-P-nLeu-D-CHO] (Cbz-Pro-[Nle]-Asp-aldehyde), the IC50 was 100 ± 10 µM in [1], more than 150 µM in [2] and 5.1 ± 0.3 µM in series [3].
Consider Dabcyl-KQ5GD-EDANS, for which the cleaved bond result in the series with 26S proteasome is reported as “Q2-Q3, major; also recorded: Q4-Q5, major”; in the series on 20S+11S, “Q2-Q3, major; also recorded: Q4-Q5, major”; in the series on 20S proteasome it was “Q2-Q3, major; also recorded: Q4-Q5, major”; with 26S+11S, “Q2-Q3, major; also recorded: Q4-Q5, major”.
Turning to Dabcyl-KQ10PPD-EDANS, the cleaved bond entry in the series on 26S proteasome is “Q2-Q3, major; also recorded: Q3-Q4, major”; in the series with 20S+11S, “Q2-Q3, major; also recorded: Q3-Q4, major”; in the series on 20S proteasome, “Q3-Q4, major, 2 h; also recorded: Q2-Q3, major, 2 h”; with 26S+11S, “Q2-Q3, major; also recorded: Q3-Q4, major”.
